In a melting point compilation (Tetko et al.; mined from patent text by program, amines drawn as free bases though some values may be those of a salt):

Row | Compound | melting point [°C]
1 | CC12CCC3C(=C1CCC2=O)C=CC1=CC(=O)CCC13CO (configuration not stated) | 264 to 265
2 | COc1ccccc1Cn1c(=O)c2c(Cl)cc(N3CCNCC3)cc2n(Cc2ccccc2)c1=O | 83 to 87
3 | O=[N+]([O-])c1cccc(/C=C/c2nc(C3CCCCCC3)cs2)c1 | 60
4 | CN(CC1CC=CCC1)c1ncnc2c1ncn2C1OC(CO)C(O)C1O (configuration not stated) | 154 to 156
5 | CCC(O)(CC)c1cc(C)c(-c2cc(OCc3ccc(CO)c(CO)c3)ccc2C)c(C)c1 | 128
6 | COc1ccc(-c2nc(-c3ccc4c(c3)OCO4)c(-c3ccc4c(c3)OCO4)[nH]2)c(OC)c1 | 95
7 | Cc1cccc(-c2nccc(-c3ccccc3C)n2)n1 | 119
8 | O=[N+]([O-])N=C1NCCN1Cc1cc(Br)no1 | 149
9 | CN1CCC(Oc2ccc(NC(=O)n3ccc4cc(Oc5cc(CC(N)=O)ncn5)ccc43)cc2C(F)(F)F)CC1 | 200 to 201
10 | CC(=O)C=Cc1ccc(Cl)c(Cl)c1 | 53 to 55
11 | COc1ccc(C(O)(C2CC2)C2CC2)c2c1nc1n2CCCN1c1ccc(Cl)cc1Cl | 219 to 220
12 | CCC/C(=C\C=C\C(=O)Oc1ccc([N+](=O)[O-])cc1)c1ccc(OC)cc1 | 90 to 92
13 | O=[N+]([O-])c1cc(Cl)cc(C(Cl)c2cc(Cl)cc([N+](=O)[O-])c2O)c1O | 180
14 | COc1ccc([N+](=O)[O-])cc1C(=O)NCc1ccc(C(F)(F)F)cc1 | 108 to 109
15 | COc1ccc(-c2nc3c(F)cccc3s2)cc1OC | 129
16 | CCCC(C)n1c(=O)nc(-n2cccn2)[nH]c1=O (configuration not stated) | 99 to 100
17 | COc1cc2nc(N3CCNCC3)nc(N)c2cc1OC | 224 to 228
18 | COC(=O)CC(C(=O)OC)N1C(=O)C2NC(C)(C)SC21 (configuration not stated) | 136 to 137
19 | Cc1cc(-n2cc(I)nc2C)ccc1[N+](=O)[O-] | 146 to 148
20 | CC(C)(C)OC(=O)Nc1cccc(C2(O)CCOCC2)c1 | 140 to 142
21 | NS(=O)(=O)c1cccc2c1CC(=O)CC2 | 173 to 175

Row | Compound | melting point [°C]
22 | Cn1nnnc1SCCCC(=O)c1ccco1 | 41 to 42
23 | COC(=O)c1ccc(C=CC(=O)Nc2cnc3c(C)cc(C)cc3c2-c2ccccc2Cl)cc1 | 225 to 226
24 | Cn1cnc(-c2ccccc2)c1-c1ccncc1 | 161 to 162
25 | Clc1ccc(-c2cccnc2)cn1 | 113 to 115
26 | CCN1CC2OC(c3ccccc3)(C1)c1ccccc12 (configuration not stated) | 132 to 134
27 | COC(=O)N=c1[nH]c2ccccc2n1C1CCN(Cc2ccccc2)CC1 | 170
28 | COc1ccc(CN(C)c2ncnc3c(N4CCOCC4)nc(N4CCC(N(C)C)CC4)nc23)cc1 | 109 to 110
29 | Cn1cc(Cc2ccccc2)c(=O)c(-c2cccc(C(F)(F)F)c2)c1 | 98 to 100
30 | O=C(c1cc(=O)c2cc(O)ccc2[nH]1)N1CCC(Cc2ccccc2)CC1 | 127
31 | O=C(c1ccc(-n2ccnc2)cc1)N1CCN(S(=O)(=O)c2ccc3cc(Br)ccc3c2)CC1 | 207 to 209
32 | Cc1ccccc1-n1ccc2c(=O)[nH]c3c(C)cccc3c21 | 226 to 232
33 | O=C(NC(CS)Cc1ccccc1)N1CCN(c2ccc(Cl)cc2)CC1 (single isomer, unassigned; (+)) | 148
34 | COC(=O)c1ncc(Nc2cc(C)[nH]n2)nc1Nc1ccc(Cl)cc1 | 259 to 261
35 | Cc1ccc(N2C(=O)C(O)=C(C(=O)c3ccc(CC(C)C)cc3)C2c2ccc(OC(F)(F)F)cc2)nn1 (configuration not stated) | 260
36 | O=C(O)c1cncc(O)c1 | > 260
37 | C=CCOc1ccc(C=CC(=O)c2c(OC)cc(OC)cc2OC(=O)CC)cc1 | 83.5
38 | CC1=C(C(=O)OC(C)C)C(c2ccccc2F)c2c[nH]nc2N1 (configuration not stated) | 218 to 220
39 | O=C(O)c1cc(-n2c(-c3ccc([N+](=O)[O-])cc3)cc3c2CCCC3)ccc1O | 241 to 242
40 | O=C(O)C(=O)N1CCC(Oc2ccccc2)CC1 | 109 to 112
41 | SCc1cn2ccccc2n1 | 168 to 178

More lines, now with the values ahead:

Row | melting point [°C] | Compound
42 | 175 to 178 | OC1(c2cc3ccccc3s2)CCN(CCC2COc3ccccc3O2)CC1 (configuration not stated)
43 | 73 to 74 | CN(CCOc1ccc(CO)cc1)c1ncccn1
44 | 118 to 119 | O=C1Nc2ccccc2CO1
45 | 167 to 169 | CC(=O)N1CCN(c2c(-c3ccccc3)sc3ccccc23)CC1
46 | 86 to 90 | c1ccc(OCCSCc2ncc(-c3ccc(N=C(c4ccccc4)c4ccccc4)cc3)o2)cc1
47 | 104 to 105 | Cc1ccc(S(=O)(=O)NCCC2CCC(CC(=O)O)CC2)cc1 (configuration not stated)
48 | 144 to 146 | CC(C)(C)OC(=O)N[C@@]1(C(=O)OC(C)(C)C)CC(=O)[C@H]2[C@H](C(=O)OC(C)(C)C)[C@H]21
49 | 248 | N/C(=C1\C(=O)c2cc(Cl)ccc2S1=O)c1ccccc1Cl (configuration not stated)
50 | 265 to 266 | O=C(O)c1ccc(-n2c(SCc3ccc(Cl)cc3)nc3ccc(Cl)cc32)cc1
51 | 225 to 227 | CC1Cc2c(cc(O)cc2C(=O)O)O1 (configuration not stated)
52 | 223 to 225 | COC(=O)C1=C(C)NC(C)=C(S(=O)(=O)c2ccc(O)cc2)C1c1ccccc1Cl (configuration not stated)
53 | 140 to 142 | COc1nc(NN)c(C(F)(F)F)cc1Cl
54 | 125 to 130 | Cc1cc(C(=O)N2Cc3cccn3Cc3ccccc32)ccc1NC(=O)c1ccccc1C
55 | 114 to 117 | CCCCCCCCCCCCNC(=O)c1cc(-c2ccc(OC)cc2)c(OCCO)c(-c2cccc(Cl)c2)c1
56 | 169 to 171 | Oc1cnccc1CCCOc1cccnc1Sc1cccc(Br)c1
57 | 152 to 155 | COc1ccc(C(=O)OC(=O)NC(CO)Cc2ccc(O)cc2)cc1OC (configuration not stated)

Row | melting point [°C] | Compound
58 | 139 to 140 | Cc1c(NC(=O)c2ccc(-c3ccccc3F)c(F)c2)ccc2cc(CN3CCCC3)cnc12
59 | 173 | CCCCCCCCc1ccc(OCC(=O)Cn2c(C(=O)O)cc3ccccc32)cc1
60 | 152 to 153 | CNc1nc(OC)ccc1[N+](=O)[O-]
61 | 138 to 140 | COc1cccc(CCc2c(CC(=O)NC(C)C)ccc(OC)c2OC)c1
62 | 107 to 109 | CC(=O)NCC(=O)c1cccc(Cl)c1Cl
63 | 205 to 207 | CNc1nc(-c2cccc(NC(=O)c3ccc4c(c3)OCO4)c2)c2cc(OC)c(OC)cc2n1
64 | 68 to 70 | N#CC=C1CCN(c2ccc(N3C[C@H](CNC(=O)CO)OC3=O)cc2F)CC1
65 | 116 to 117 | COC(=O)[C@H](Cc1cc(C)c(OCc2cccc3nc(-c4ccccc4)oc23)c(C)c1)NC(=O)OC(C)(C)C
66 | 118 to 124 | O=C(OCc1ccccc1C(=O)O)c1ccccc1
67 | 260 to 261 | Cc1cccc2c(=O)nc(-c3cccc(C(=O)O)n3)sc12
68 | 38 to 39 | C#CCOc1cc(F)ccc1[N+](=O)[O-]
69 | 193 | CCN(CC)C(=O)c1ccc(-c2nc(=O)c3ccccc3s2)nc1
70 | 127 to 129 | Clc1ccc(N2CCN(CCCc3c4c(nn3-c3ccccc3)CCCC4)CC2)cc1
71 | 117 to 119 | CC(=O)c1cc(Cl)c(N)c(I)c1F
72 | 146 to 148 | CCCC(=O)OCc1ccc2oc(=O)c(C(=O)Oc3cncc(Cl)c3)cc2c1
